Where a name gives a salt, the structure may show the parent alone. Read-outs that look alike come from different tables or passages of the source.
How the values were obtained:
[1] = tested on: A-10 cells; assay: Microtubule depolymerization, cell-based phenotypic assay in A-10 cells
[2] = biological target: EGFR (Homo sapiens, UniProt P00533); assay: Kinase inhibition, whole-cell assay, EGFR; format: cell-based
[3] = tested on: A431; assay: A431 cytotoxicity; conditions: Homo sapiens
[4] = biological target: PDGFR-β (Homo sapiens, UniProt P09619); assay: Kinase inhibition, whole-cell assay, PDGFR-β; format: cell-based
[5] = tested on: MDA-MB-435 cancer cells; assay: Antiproliferative effect in MDA-MB-435 cancer cells (SRB assay); format: cell-based
[6] = tested on: MDA-MB-435 xenograft; assay: MDA-MB-435 xenograft trial; conditions: IP 75 mg/kg; for adverse effects / toxicity in xenograft trial: cumulative dosing
[7] = tested on: PC43-10 (RFC); assay: Proliferation inhibition, RFC-expressing PC43-10 cells; format: cell-based, Chinese hamster; conditions: Table 11
Text: (§1) AGF215, AGF234 and AGF263 were compared to AGF23 as inhibitors of proliferation of engineered Chinese hamster ovary (CHO) cells expressing human PCFT (R2/PCFT4), FRα (RT16), or RFC (PC43-10).

[8] = tested on: KB (RFC/FRα/PCFT); assay: Growth inhibition of KB tumor cells; format: cell-based, human
Procedure: Cell proliferation was assayed with CellTiter-Blue™ with a fluorescent plate reader.

[9] = tested on: Pgp expressing SK-OV-3 MDR1-6-6; assay: Antiproliferative activity, Pgp expressing SK-OV-3 MDR1-6-6; format: cell-based; conditions: Homo sapiens, SK-OV-3; Table 6; read-out: IC50 ± SD Pgp expressing SK-OV-3 MDR1-6-6
[10] = tested on: β-III overexpressing HeLa; assay: Antiproliferative activity, β-III overexpressing HeLa; format: cell-based; conditions: for IC50: Homo sapiens, HeLa, Table 7, read-out: IC50 ± SD β-III overexpressing HeLa
Text: (§2) Another clinically relevant drug resistance mechanism of tubulin-targeting agents is the overexpression of the βIII isotype of tubulin.

[11] = tested on: Parental SK-OV-3; assay: Antiproliferative activity, parental SK-OV-3; format: cell-based; conditions: Homo sapiens, Table 6, read-out: IC50 ± SD Parental SK-OV-3
[12] = tested on: Parental HeLa; assay: Antiproliferative activity, parental HeLa; format: cell-based; conditions: Homo sapiens, Table 7, read-out: IC50 ± SD Parental HeLa
Text: as §2

[13] = tested on: RT16 (FRα); assay: Proliferation inhibition, FRα-expressing RT16 cells; format: cell-based, Chinese hamster
Text: as §1

[14] = tested on: CAM; assay: CAM (gi50); conditions: Table 3b; unit inferred
[15] = biological target: VEGFR2 (Homo sapiens, UniProt P35968); assay: Kinase inhibition, whole-cell assay, VEGFR2 (Flk-1); format: cell-based; conditions: Table 3b; unit inferred
[16] = tested on: U251; assay: U251 cytotoxicity; format: cell-based; conditions: Homo sapiens, U-251; Table 3b; unit inferred
[17] = Rattus norvegicus, A10, read-out: Microtubule depolymerization EC50
[18] = Table 1, IC50 ± SD, read-out: Kinase inhibition IC50 [whole-cell assays] EGFR
[19] = A-431, read-out: A431 cytotoxicity, Table 1, IC50 ± SD
[20] = Table 1, IC50 ± SD, read-out: Kinase inhibition IC50 [whole-cell assays] PDGFR-β
[21] = Homo sapiens, MDA-MB-435, read-out: MDA-MB-435 IC50
[22] = Table 3b, unit inferred, read-out: EGFR kinase inhibition
[23] = A-431, read-out: A431 cytotoxicity, Table 3b, unit inferred
[24] = Table 3b, unit inferred, read-out: PDGFR kinase inhibition
[25] = Table 3, read-out: Microtubule depolymerization EC50
[26] = Table 3, read-out: MDA-MB-435 IC50
[27] = Table 11, read-out: IC50 RFC/FRα/PCFT KB
[28] = with folic acid (+FA), read-out: IC50 RFC/FRα/PCFT KB (+FA)
[29] = Rattus norvegicus, A10, read-out: EC50 in A-10 cells (Concentration that causes 50% tubulin loss in A-10 cells), Table 4, Section II compounds
[30] = Homo sapiens, MDA-MB-435, Table 4, Section II compounds, SRB assay, read-out: IC50 ± SD (MDA-MB-435) Cancer cells
[31] = Table 3a, unit inferred, read-out: EC50 for Microtubule Depolymerization in A · 10 Cells
[32] = Table 3a, unit inferred, read-out: IC50 ± SD in MDA-435 Cells
[33] = Rattus norvegicus, A10, Table 3a, unit inferred, read-out: EC50 for Microtubule Depolymerization in A · 10 Cells
[34] = Homo sapiens, Table 3a, unit inferred, read-out: IC50 ± SD in MDA-435 Cells

VEGFR2, sequence (P35968 20-1356, species assumed): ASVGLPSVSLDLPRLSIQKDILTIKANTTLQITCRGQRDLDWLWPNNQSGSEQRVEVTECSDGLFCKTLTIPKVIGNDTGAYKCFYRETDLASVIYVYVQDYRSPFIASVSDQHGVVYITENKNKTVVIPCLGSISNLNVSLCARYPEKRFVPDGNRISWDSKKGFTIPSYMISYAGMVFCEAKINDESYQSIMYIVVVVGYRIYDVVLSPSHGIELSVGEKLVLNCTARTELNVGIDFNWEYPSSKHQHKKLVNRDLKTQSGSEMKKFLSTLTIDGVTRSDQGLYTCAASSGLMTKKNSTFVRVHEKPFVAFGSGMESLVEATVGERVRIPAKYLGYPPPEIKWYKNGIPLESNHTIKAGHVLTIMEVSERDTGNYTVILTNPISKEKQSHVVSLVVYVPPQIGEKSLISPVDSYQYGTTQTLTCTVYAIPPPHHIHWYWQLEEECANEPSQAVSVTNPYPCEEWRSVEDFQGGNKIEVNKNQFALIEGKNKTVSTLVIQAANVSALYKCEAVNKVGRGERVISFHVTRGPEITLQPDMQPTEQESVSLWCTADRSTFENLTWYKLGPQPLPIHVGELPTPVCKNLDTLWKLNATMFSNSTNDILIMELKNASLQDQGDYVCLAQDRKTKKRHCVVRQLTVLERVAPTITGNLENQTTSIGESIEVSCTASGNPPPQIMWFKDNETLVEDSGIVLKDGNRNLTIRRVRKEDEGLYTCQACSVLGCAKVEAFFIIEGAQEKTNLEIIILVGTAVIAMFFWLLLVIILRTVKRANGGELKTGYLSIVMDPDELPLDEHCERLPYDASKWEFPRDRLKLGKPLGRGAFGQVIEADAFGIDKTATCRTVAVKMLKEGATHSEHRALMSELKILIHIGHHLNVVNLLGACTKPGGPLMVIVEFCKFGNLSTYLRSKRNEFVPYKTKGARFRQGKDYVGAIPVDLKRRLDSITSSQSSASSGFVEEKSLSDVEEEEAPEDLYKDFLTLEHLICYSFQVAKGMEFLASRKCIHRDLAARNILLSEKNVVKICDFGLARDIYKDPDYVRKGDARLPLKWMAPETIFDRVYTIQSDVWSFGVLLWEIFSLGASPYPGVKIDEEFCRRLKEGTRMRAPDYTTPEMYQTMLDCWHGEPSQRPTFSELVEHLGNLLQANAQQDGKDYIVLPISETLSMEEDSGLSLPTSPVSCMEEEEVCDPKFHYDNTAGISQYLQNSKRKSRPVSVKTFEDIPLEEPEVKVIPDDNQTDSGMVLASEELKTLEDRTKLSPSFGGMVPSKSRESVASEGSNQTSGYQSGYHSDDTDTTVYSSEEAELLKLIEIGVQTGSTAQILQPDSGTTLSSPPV
PDGFR-β, sequence (P09619 33-1106, species assumed): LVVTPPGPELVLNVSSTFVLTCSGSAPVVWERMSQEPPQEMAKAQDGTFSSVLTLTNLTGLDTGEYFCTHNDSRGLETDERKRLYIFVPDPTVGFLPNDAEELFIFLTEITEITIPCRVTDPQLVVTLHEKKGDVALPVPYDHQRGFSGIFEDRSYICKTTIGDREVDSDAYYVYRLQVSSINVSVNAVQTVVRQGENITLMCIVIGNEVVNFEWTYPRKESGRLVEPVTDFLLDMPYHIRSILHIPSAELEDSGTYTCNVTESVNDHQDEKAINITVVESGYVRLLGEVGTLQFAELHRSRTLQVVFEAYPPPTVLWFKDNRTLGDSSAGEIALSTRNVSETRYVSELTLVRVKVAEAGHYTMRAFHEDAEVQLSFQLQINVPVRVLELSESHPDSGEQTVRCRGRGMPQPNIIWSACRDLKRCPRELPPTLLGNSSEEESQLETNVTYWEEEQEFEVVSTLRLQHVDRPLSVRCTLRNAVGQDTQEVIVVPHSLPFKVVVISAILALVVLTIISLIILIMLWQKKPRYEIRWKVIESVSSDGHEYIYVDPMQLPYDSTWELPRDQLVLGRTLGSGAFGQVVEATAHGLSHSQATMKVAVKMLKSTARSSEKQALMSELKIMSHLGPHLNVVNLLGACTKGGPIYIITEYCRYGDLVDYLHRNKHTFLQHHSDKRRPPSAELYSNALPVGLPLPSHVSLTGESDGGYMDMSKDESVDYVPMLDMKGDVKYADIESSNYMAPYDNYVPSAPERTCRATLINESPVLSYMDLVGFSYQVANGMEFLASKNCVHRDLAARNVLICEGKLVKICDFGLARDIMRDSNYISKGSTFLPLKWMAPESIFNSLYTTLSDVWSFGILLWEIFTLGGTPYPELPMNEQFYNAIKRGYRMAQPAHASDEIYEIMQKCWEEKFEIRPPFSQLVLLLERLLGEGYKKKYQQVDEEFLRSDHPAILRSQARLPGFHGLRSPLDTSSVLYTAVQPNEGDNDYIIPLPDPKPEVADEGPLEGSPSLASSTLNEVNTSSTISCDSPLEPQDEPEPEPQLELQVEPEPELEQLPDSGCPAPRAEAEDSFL
EGFR, sequence (P00533 25-1210, species assumed): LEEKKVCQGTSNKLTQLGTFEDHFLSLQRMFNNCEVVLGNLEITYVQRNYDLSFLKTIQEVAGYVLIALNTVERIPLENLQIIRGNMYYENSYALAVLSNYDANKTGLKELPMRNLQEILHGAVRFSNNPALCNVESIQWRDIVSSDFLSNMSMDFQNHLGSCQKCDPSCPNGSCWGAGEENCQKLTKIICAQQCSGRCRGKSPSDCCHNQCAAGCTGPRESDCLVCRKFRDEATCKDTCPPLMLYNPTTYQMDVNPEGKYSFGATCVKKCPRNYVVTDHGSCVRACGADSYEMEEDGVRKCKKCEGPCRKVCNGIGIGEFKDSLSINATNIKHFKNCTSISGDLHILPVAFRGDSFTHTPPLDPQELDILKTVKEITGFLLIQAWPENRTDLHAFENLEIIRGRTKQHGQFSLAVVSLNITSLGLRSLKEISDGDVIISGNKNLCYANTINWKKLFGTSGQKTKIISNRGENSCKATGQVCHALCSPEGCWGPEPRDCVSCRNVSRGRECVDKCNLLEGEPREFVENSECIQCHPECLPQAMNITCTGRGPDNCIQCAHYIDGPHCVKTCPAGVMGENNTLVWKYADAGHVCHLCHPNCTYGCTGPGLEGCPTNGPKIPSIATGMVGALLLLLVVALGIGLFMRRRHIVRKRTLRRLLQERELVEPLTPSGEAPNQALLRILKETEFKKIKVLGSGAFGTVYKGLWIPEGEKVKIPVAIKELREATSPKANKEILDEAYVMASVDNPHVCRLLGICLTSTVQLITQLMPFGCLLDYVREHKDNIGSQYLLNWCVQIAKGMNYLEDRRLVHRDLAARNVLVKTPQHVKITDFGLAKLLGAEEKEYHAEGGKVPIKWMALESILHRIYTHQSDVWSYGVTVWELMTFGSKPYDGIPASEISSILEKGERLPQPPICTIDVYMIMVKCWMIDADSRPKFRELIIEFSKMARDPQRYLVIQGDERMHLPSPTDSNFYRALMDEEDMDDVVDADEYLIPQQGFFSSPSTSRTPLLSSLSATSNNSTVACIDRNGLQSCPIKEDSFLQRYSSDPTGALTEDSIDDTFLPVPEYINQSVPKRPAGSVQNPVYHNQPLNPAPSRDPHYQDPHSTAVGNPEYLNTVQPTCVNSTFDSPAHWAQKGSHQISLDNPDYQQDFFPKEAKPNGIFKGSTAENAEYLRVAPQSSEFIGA

COc1ccc(N(C)c2nc(C)nc3cc[nH]c23)cc1 [1•HCl]
EC50 [1, 17]: 1200 nM
IC50 [2, 18]: 0.0295 ± 0.0031 µM
IC50 [3, 19]: 0.215 ± 0.0301 µM
IC50 [4, 20]: 0.25 ± 0.0206 µM
IC50 [5, 21]: 96 ± 5.3 nM

COc1ccc(N(C)c2nc(C)nc3ccn(C)c23)cc1 [2•HCl]
EC50 ([1]; Rattus norvegicus, A10, read-out: EC50 for Microtubule Depolymerization in A · 10 Cells): 7.4 nM
EC50 [1, 17]: 7.4 nM
IC50 [2, 18]: 0.0252 ± 0.00041 µM
IC50 [2, 22]: 0.0893 ± 0.0092 µM
IC50 [3, 19]: 0.0088 ± 0.0009 µM
IC50 [3, 23]: 0.107 ± 0.018 µM
final average tumor mass compared to the vehicle ([6]; Day 15): statistically significant (p<0.001) lower final average tumor mass
mouse weight change ([6]; compared to the vehicle): recoverable weight loss
adverse effects / toxicity in xenograft trial ([6]; 75 mg/kg): noticeable adverse effects on the central nervous system
adverse effects / toxicity in xenograft trial ([6]; listed as AG 141, 75 mg/kg): severe seizures in two mice
adverse effects / toxicity in xenograft trial ([6]; listed as AG141, 75 mg/kg): unacceptable cumulative CNS toxicities
tumor growth during the trial ([6]; nude mice): inhibited tumor growth
IC50 [4, 20]: 0.067 ± 0.0102 µM
IC50 [4, 24]: > 0.2 µM
IC50 [5, 21]: 4.3 ± 0.3 nM
IC50 ([5]; Homo sapiens, read-out: IC50 ± SD in MDA-435 Cells): 4.3 ± 0.3 nM

CSc1ccc(N(C)c2nc(C)nc3cc[nH]c23)cc1 [4•HCl]
EC50 [1, 25]: 1100 nM
IC50 [5, 26]: 49.9 ± 10.4 nM

CSc1ccc(N(C)c2nc(C)nc3ccn(C)c23)cc1 [5•HCl]
EC50 [1, 25]: 23 nM
IC50 [5, 26]: 6.2 ± 1 nM

COc1ccc(N(C)c2nc(C)nc3ccn(C(C)C)c23)cc1.Cl [AG174]
antitumor effects ([6]; MDA-MB-435 xenograft): highly statistically significant (p<0.001) antitumor effects

Nc1nc2[nH]c(CCCSc3ccc(C(=O)N[C@@H](CCC(=O)O)C(=O)O)cc3)cc2c(=O)[nH]1 [AGF263]
IC50 [7]: > 1 µM
IC50 RFC PC43-10 [7]: inactive
IC50 [8, 27]: 0.00022 µM
IC50 [8, 28]: 0.6 µM

Cc1nc2c(c(N(C)c3ccc(S(C)(=O)=O)cc3)n1)CCC2 [Compd 5]
EC50 [1, 29]: > 10000 nM

CO[C@H]1CC[C@H](N(C)c2nc(C)nc3c2CCC3)CC1 [Compd 13]
EC50 [1, 29]: > 10000 nM

COc1ccc(N(C)c2nc(C)nc3c2CCC3)cc1 [Compound 1]
IC50 [9]: 0.0164 ± 0.0004 µM
EC50 [1, 29]: 25.9 nM
IC50 [10]: 0.0096 ± 0.0009 µM
IC50 [11]: 0.0113 ± 0.0002 µM
IC50 [12]: 0.012 ± 0.0012 µM
IC50 [5, 30]: 7 ± 0.7 nM

CSc1ccc(N(C)c2nc(C)nc3c2CC(C)C3)cc1 (stereo not shown) [Compound 2]
IC50 [9]: 0.0227 ± 0.0027 µM
EC50 [1, 29]: 116 nM
IC50 [10]: 0.0148 ± 0.0015 µM
IC50 [11]: 0.0212 ± 0.004 µM
IC50 [12]: 0.0196 ± 0.002 µM
IC50 [5, 30]: 15 ± 6.5 nM

Cc1nc2c(c(N(C)c3ccc4c(c3)CCO4)n1)CCC2 [Compound 6]
IC50 [9]: 0.0298 ± 0.0056 µM
IC50 [10]: 0.015 ± 0.001 µM
IC50 [11]: 0.0187 ± 0.0012 µM
IC50 [12]: 0.016 ± 0.001 µM

COc1ccc(N(C)c2nc(C)nc3c2CCC3)cc1C [Compound 7]
IC50 [9]: 0.0475 ± 0.0024 µM
IC50 [10]: 0.0188 ± 0.0016 µM
IC50 [11]: 0.0239 ± 0.0025 µM
IC50 [12]: 0.023 ± 0.001 µM

Cc1nc2c(c(N(C)c3ccc(N(C)C)cc3)n1)CCC2 [Compound 9]
IC50 [9]: 0.0226 ± 0.0023 µM
IC50 [10]: 0.0098 ± 0.0009 µM
IC50 [11]: 0.013 ± 0.001 µM
IC50 [12]: 0.011 ± 0.001 µM

COc1ccc([C@H](C)N(C)c2nc(C)nc3c2CCC3)cc1 [Compound 10]
EC50 [1, 29]: > 10000 nM

COc1ccc([C@@H](C)N(C)c2nc(C)nc3c2CCC3)cc1 [Compound 11]
EC50 [1, 29]: > 10000 nM

Cc1nc2ccc3ccc(CNc4ccc5c(c4)CN([C@@H](CCC(=O)O)C(=O)O)C5=O)cc3c2c(=O)[nH]1 [GW1843U89]
IC50 [8, 27]: 0.0058 µM
IC50 [8, 28]: 0.032 µM

Nc1nc(N)c2nc(CNc3ccc(C(=O)N[C@@H](CCCNC(=O)c4ccccc4C(=O)O)C(=O)O)cc3)cnc2n1 [PT523]
IC50 ([13]; Table 11, read-out: IC50 FRα RT16): 0.409 µM
IC50 ([13]; with folic acid (+FA), read-out: IC50 FRα RT16 (+FA)): > 1 µM
IC50 [7]: 0.00128 µM

CNc1ccc(N(C)c2nc(C)nc3c2CCC3)cc1 [Section II compound 8]
IC50 [9]: 0.0497 ± 0.0079 µM
IC50 [10]: 0.0191 ± 0.0039 µM
Rr* ([10]; relative resistance, β-III overexpressing HeLa vs parental HeLa): 0.6
IC50 [11]: 0.0363 ± 0.0033 µM
IC50 [12]: 0.031 ± 0.0016 µM

COc1ccc(CN(C)c2nc(C)nc3c2CCC3)cc1 [Section II compound 12]
EC50 [1, 29]: 11300 nM

COc1cccc2cc(N(C)c3nc(C)nc4ccn(C)c34)ccc12 [Table 3a 14]
EC50 [1, 31]: > 10000 nM
IC50 [5, 32]: 2000 nM

COc1cccc2cc(N(C)c3nc(Cl)nc4ccn(C)c34)ccc12 [Table 3a 15]
EC50 [1, 31]: 50 nM
IC50 [5, 32]: 22.6 nM

COc1ccc(N(C)c2ncnc3ccn(C)c23)cc1 [Table 3a 17]
EC50 [1, 31]: 27.5 nM
IC50 [5, 32]: 13.4 ± 0.5 nM

COc1ccc(N(C)c2nc(Cl)nc3ccn(C)c23)cc1 [Table 3a 19]
GI50 [14]: 0.0093 ± 0.00091 µM
EC50 [1, 33]: 1.48 nM
IC50 [15]: 0.0124 ± 0.0012 µM
IC50 [2, 22]: 0.0063 ± 0.0009 µM
IC50 [3, 23]: 0.0021 ± 0.0003 µM
IC50 [4, 24]: 0.0042 ± 0.0009 µM
IC50 [5, 34]: 1.3 nM
IC50 [16]: 0.0031 ± 0.0004 µM

COc1ccc2c(c1)CCCN2c1nc(Cl)nc2ccn(C)c12 [Table 3a 23]
GI50 [14]: 0.0076 ± 0.001 µM
EC50 [1, 33]: 3.31 nM
IC50 [15]: 0.0152 ± 0.002 µM
IC50 [2, 22]: 0.009 ± 0.0009 µM
IC50 [3, 23]: 0.003 ± 0.0003 µM
IC50 [4, 24]: 0.0084 ± 0.0008 µM
IC50 [5, 34]: 4.1 ± 0.1 nM
IC50 [16]: 0.0038 ± 0.0005 µM

CSc1ccc(N(C)c2nc(C)nc3ccn(C)c23)cc1 [Table 3a 26]
GI50 [14]: 0.363 ± 0.0569 µM
EC50 ([1]; Rattus norvegicus, A10, Table 3a, lines that print nM, read-out: EC50 for Microtubule Depolymerization in A · 10 Cells): 23 nM
IC50 [15]: 0.544 ± 0.0772 µM
IC50 [2, 22]: 0.0548 ± 0.0092 µM
IC50 [3, 23]: 0.0188 ± 0.0041 µM
IC50 [4, 24]: 0.45 ± 0.0531 µM
IC50 ([5]; Homo sapiens, Table 3a, cells that print nM, read-out: IC50 ± SD in MDA-435 Cells): 6.2 nM
IC50 [16]: 0.0351 ± 0.0063 µM

CSc1ccc(N(C)c2nc(Cl)nc3ccn(C)c23)cc1 [Table 3a 27]
GI50 [14]: 0.0452 ± 0.0052 µM
EC50 [1, 33]: 2.7 nM
IC50 [15]: 0.0339 ± 0.0039 µM
IC50 [2, 22]: 0.0164 ± 0.0026 µM
IC50 [3, 23]: 0.0082 ± 0.0013 µM
IC50 [4, 24]: 0.0108 ± 0.0016 µM
IC50 [5, 34]: 3.6 ± 0.3 nM
IC50 [16]: 0.0113 ± 0.0018 µM

CN(c1ccc(OC(F)(F)F)cc1)c1nc(Cl)nc2ccn(C)c12 [Table 3a 29]
EC50 [1, 33]: 139 nM
IC50 [5, 34]: 49.3 ± 1.1 nM

— patent US10239880B2, “Cyclopenta[d]pyrimidines and substituted cyclopenta[d]pyrimidines as antitubulin and microtubule targeting agents, monocyclic pyrimidines as tubulin inhibitors, and pyrrolopyrimidines as targeted antifolates and tubulin and multiple receptor tyrosine kinase inhibition and antitumor agents” (Duquesne University of the Holy Spirit, priority 2015, dated 2019)
